Measured values published in ChEMBL document CHEMBL1154308, “Carteriosulfonic acids A-C, GSK-3beta inhibitors from a Carteriospongia sp” (J Nat Prod, 2009).
The source made the active and inactive calls. No cut-off for these calls is given here.

Legend:
[1] = Inhibition of rabbit GSKbeta assessed as [32P]-phosphorylation of substrate after 1 hr by scintillation counting; set-up: species or system Oryctolagus cuniculus
[2] = species on record: Oryctolagus cuniculus; assay: Inhibition of rabbit GSKbeta assessed as [32P]-phosphorylation of substrate up to 50 uM after 1 hr by scintillation counting

| IC50 [1] | inhibition [2] | Structure (SMILES) |
| --- | --- | --- |
| 6.8 µM |  | CCCCC/C=C/C(O)CCCCC/C=C/C(CCCCCCCC(=O)OC(C)C[C@H](O)[C@H](O)C[C@H](O)CCC(=O)NCCS(=O)(=O)O)OC(C)=O (some centres undefined) [CARTERIOSULFONIC ACID B] |
| 12.5 µM |  | CCCCC/C=C/C(O)CCCCC/C=C/C(O)CCCCCCCC(=O)OC(C)C[C@H](O)[C@H](O)C[C@H](O)CCC(=O)NCCS(=O)(=O)O (mixture of isomers) [CARTERIOSULFONIC ACID A] |
|  | inactive | CC(O)C[C@H](O)[C@H](O)C[C@H](O)CCC(=O)NCCS(=O)(=O)O (some centres undefined) |
| 6.8 µM |  | CCCCC/C=C/C(O)CCCCCCCCCCCCCC(=O)OC(C)C[C@H](O)[C@H](O)C[C@H](O)CCC(=O)NCCS(=O)(=O)O (mixture of isomers) [CARTERIOSULFONIC ACID C] |
